Experimental data reported in patent publication US20130252930A1 (BIOMARIN PHARMACEUTICAL INC., priority 2010, published 2013).
pIC50: −log10 of the molar value. Read-outs that look alike come from different tables or passages of the source. Blank lines part the entries; values can stand above or below the compound they belong to.

Legend:
[1] = target: T1, CYP17 (human testicular microsome) (Homo sapiens, UniProt P05093); assay: CYP17 enzymatic assay (% inhibition at 1 nM) (Biological Example 12); format: biochemical; conditions: compound at 1 nM
T1 construct: using microsomal fraction from human testis (Celsis Cat #S00110) as the enzyme source; tissue Celsis S00110; host or cells: human testis microsomal fraction
T1 sequence (P05093 1-508): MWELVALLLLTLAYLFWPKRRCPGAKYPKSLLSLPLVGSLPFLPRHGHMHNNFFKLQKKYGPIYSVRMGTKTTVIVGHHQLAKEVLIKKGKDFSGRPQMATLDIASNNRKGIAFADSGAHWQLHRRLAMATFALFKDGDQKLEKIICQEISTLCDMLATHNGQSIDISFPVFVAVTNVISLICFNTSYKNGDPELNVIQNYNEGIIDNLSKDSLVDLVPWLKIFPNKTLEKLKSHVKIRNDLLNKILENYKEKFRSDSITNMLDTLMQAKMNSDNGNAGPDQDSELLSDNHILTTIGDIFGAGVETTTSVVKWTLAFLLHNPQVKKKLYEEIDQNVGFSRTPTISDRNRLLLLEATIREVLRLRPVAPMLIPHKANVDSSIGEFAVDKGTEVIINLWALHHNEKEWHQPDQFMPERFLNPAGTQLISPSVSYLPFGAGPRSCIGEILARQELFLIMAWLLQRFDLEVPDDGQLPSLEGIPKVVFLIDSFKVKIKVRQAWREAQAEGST

[2] = target: T1, CYP17 (human testicular microsome); assay: CYP17 enzymatic assay (IC50) (Biological Example 4); format: biochemical; conditions: human testicular microsome
[3] = read-out: Biological Example No. 12: CYP17 enzymatic assay % inhibition at 1 nM
[4] = read-out: Biological Example No. 4: CYP17 enzymatic assay IC50
[5] = read-out: CYP17 enzymatic assay % inhibition at 1 nM (Biological Example No. 12)
[6] = read-out: CYP17 enzymatic assay IC50 (Biological Example No. 4)

Structure (SMILES): CC1=C2CC[C@@H]3[C@H](CC[C@]4(C)C(c5cccnc5)=CC[C@@H]34)[C@@]2(C)CCC1O (mixture of isomers) [Compound 302, (10R,13S)-4,10,13-trimethyl-17-(pyridin-3-yl)-2,3,6,7,8,9,10,11,12,13,14,15-dodecahydro-1H-cyclopenta[a]phenanthren-3-ol]
inhibition at 0.001 µM [1, 3]: 10 to 50%
pIC50 [2, 4]: > 7.96

Structure (SMILES): C[C@]12CC[C@@H](NC(=O)C3CCC3)CC1=CCC1C2CC[C@]2(C)C(c3cccnc3)=CCC12 (stereo partly drawn) [Compound 226, N-((3R,10R,13S)-10,13-dimethyl-17-(pyridin-3-yl)-2,3,4,7,8,9,10,11,12,13,14,15-dodecahydro-1H-cyclopenta[a]phenanthren-3-yl)cyclobutanecarboxamide]
inhibition at 0.001 µM [1, 5]: > 50%
pIC50 [2, 6]: > 7.96

Structure (SMILES): Cc1cncc(C2=CC[C@H]3[C@@H]4CC=C5C[C@H](NC(=O)C6CC6)CC[C@]5(C)[C@H]4CC[C@]23C)c1 [Compound 227, N-((3R,10R,13S)-10,13-dimethyl-17-(5-methylpyridin-3-yl)-2,3,4,7,8,9,10,11,12,13,14,15-dodecahydro-1H-cyclopenta[a]phenanthren-3-yl)cyclopropanecarboxamide]
inhibition at 0.001 µM [1, 5]: > 50%
pIC50 [2, 6]: > 7.96

Structure (SMILES): CC1=C2CCC3C4=CC=C(c5cccnc5)[C@@]4(C)CCC3[C@@]2(C)CCC1O (stereo partly drawn) [Compound 299, (10R,13S)-4,10,13-trimethyl-17-(pyridin-3-yl)-2,3,6,7,8,9,10,11,12,13-decahydro-1H-cyclopenta[a]phenanthren-3-ol]
inhibition at 0.001 µM [1, 5]: < 10%
pIC50 [2, 6]: > 7.96

Structure (SMILES): C[C@]12CC[C@H]3[C@@H](CC(F)C4(O)CC(=O)CC[C@]34C)[C@@H]1CC=C2c1cccnc1 (stereo partly drawn) [Compound 310e, (10R,13S)-6-fluoro-5-hydroxy-10,13-dimethyl-17-(pyridin-3-yl)-4,5,6,7,8,9,10,11,12,13,14,15-dodecahydro-1H-cyclopenta[a]phenanthren-3(2H)-one]
inhibition at 0.001 µM [1, 3]: > 50%
pIC50 [2, 4]: > 7.96

Structure (SMILES): C[C@]12CC[C@H]3[C@@H](CC(F)C4(O)CC(=O)CC[C@]34C)[C@@H]1CC=C2c1cncc(F)c1 (stereo partly drawn) [Compound 324, (10R,13S)-6-fluoro-17-(5-fluoropyridin-3-yl)-5-hydroxy-10,13-dimethyl-4,5,6,7,8,9,10,11,12,13,14,15-dodecahydro-1H-cyclopenta[a]phenanthren-3(2H)-one]
inhibition at 0.001 µM [1, 3]: > 50%
pIC50 [2, 4]: > 7.96

Structure (SMILES): C[C@]12CCC(F)(F)CC1CCC1C2CC[C@]2(C)C(c3cccnc3)=CCC12 (stereo partly drawn) [Compound 404, 3-((10S,13S)-3,3-difluoro-10,13-dimethyl-2,3,4,5,6,7,8,9,10,11,12,13,14,15-tetradecahydro-1H-cyclopenta[a]phenanthren-17-yl)pyridine]
pIC50 [2, 4]: > 7.96

pIC50 [2, 6]: < 7.60
Structure (SMILES): C[C@]12CCC(F)(F)CC1CCC1C2CC[C@]2(C)C(c3cncc(F)c3)=CCC12 (stereo partly drawn) [Compound 405, 3-((10S,13S)-3,3-difluoro-10,13-dimethyl-2,3,4,5,6,7,8,9,10,11,12,13,14,15-tetradecahydro-1H-cyclopenta[a]phenanthren-17-yl)-5-fluoropyridine]

Structure (SMILES): C[C@]12CCC(F)(F)CC1CCC1C2CC[C@]2(C)C(n3ccnc3)=CCC12 (stereo partly drawn) [Compound 406, 1-((10S,13S)-3,3-difluoro-10,13-dimethyl-2,3,4,5,6,7,8,9,10,11,12,13,14,15-tetradecahydro-1H-cyclopenta[a]phenanthren-17-yl)-1H-imidazole]
pIC50 [2, 6]: > 7.96

Structure (SMILES): CC1CC2C3CC=C(c4cccnc4)[C@@]3(C)CCC2[C@@]2(C)CC[C@H](O)CC12O (stereo partly drawn) [Compound 410, (3S,10R,13S)-6,10,13-trimethyl-17-(pyridin-3-yl)-2,3,4,5,6,7,8,9,10,11,12,13,14,15-tetradecahydro-1H-cyclopenta[a]phenanthrene-3,5-diol]
inhibition at 0.001 µM [1, 3]: > 50%
pIC50 [2, 4]: > 7.96
